What all share (test): Minimum inhibitory concentration (CLSI M07-8A, modified)
Common to all, as to type: cell-based

Test [1] relates to Clostridium difficile UK1. Particulars: peptide purified to about 90%; THyex medium; 24 hour incubation; anaerobic chamber at 37° C. The procedure:
(§1) Wild-type mutacin 1140, mutacin 1140 with a F1I mutation, mutacin 1140 with a W4A mutation, and mutacin 1140 with a R13D mutation was purified to about 90% purity (measured via HPLC). The minimum inhibitory concentration (MIC) of MU1140 and variants of MU1140 was determined against several bacteria. The MIC is the lowest concentration of MU1140 that will inhibit the visible growth of a microorganism after 24 hour incubation. A lower MIC is an indication of greater inhibitory activity. Preparation of the antimicrobial agent and bacterial inoculum for minimum inhibitory concentrations (MICs) was performed by following the method described in Clinical Laboratory Standard Institute (CLSI) M07-8A with some minor modifications. Streptococcus mutans UA159 was tested overnight in a shaking incubator to maintain uniform dispersion of the bacteria. Clostridium difficile UK1 was tested in an anaerobic chamber at 37° C. The medium used was THyex.

In test [2] the test system is Micrococcus luteus ATCC10240. To be noted: peptide purified to about 90%; THyex medium; 24 hour incubation. The protocol: as §1
The subject of test [3] is Staphylococcus aureus FA1. To be noted: peptide purified to about 90%; THyex medium; 24 hour incubation. The protocol: as §1
The test system of test [4] is Streptococcus mutans UA159. To be noted: peptide purified to about 90%; THyex medium; 24 hour incubation; shaking incubator overnight. The protocol: as §1
For test [5], the system named is Streptococcus pneumonia FA1. Particulars: peptide purified to about 90%; THyex medium; 24 hour incubation. The protocol: as §1

As to “Mu1140 Wild-type: wild-type lantibiotic mutacin MU1140 (SEQ ID NO:1) produced by S. mutans strain JH1140 (ATCC 55676)”, the “MIC Clostridium difficile UK1” value in test [1] turned out to be 16. Besides, the “MIC Micrococcus luteus ATCC10240” value in test [2] came to 0.0625. In test [3], the “MIC Staphylococcus aureus FA1” value was determined as 16. The “MIC Streptococcus mutans UA159” value in test [4] was found to be 2. In addition, the “MIC Streptococcus pneumonia FA1” value in test [5] stood at 0.5.
